{"source": "patent US10864216B2", "about": "“Phenothiazine diaminium salts and their use” (WisTa Laboratories Ltd., priority 2011, dated 2020)", "key": {"[1]": {"experiment": "Dynamic vapour sorption (DVS)", "assay_type": "physicochemical", "settings": "crystalline, 25° C., relative humidity range between 0% and 70%", "description": "FIGS. 15a and 15b show the dynamic vapour sorption (DVS) curve for crystalline LMT.2MsOH measured at 25° C. with 5%/h scanning rate. The horizontal dashed lines indicate steps of water uptake of one equivalent. […] Above this r.h., the water uptake increased rapidly, and the sample ultimately deliquesced. Upon drying, the water content decreased again to approximately 4 equiv. at 50% r.h.\nProjekt Messtechnik SPS 11-100n water vapor sorption analyzer. The samples were placed in aluminum crucibles on top of a microbalance and were equilibrated at 25° C. and 50% r.h. before starting a pre-defined humidity program at 25° C. (50-0-95-50% r.h., scanning with Δ r.h.=5% h^−1 and with ‘isohumid’ equilibration periods at the extreme values)."}, "[2]": {"system": "rat, stomach (non glandular)", "experiment": "Gastric irritation: 28-day rat study with LMT.2MsOH", "assay_type": "in vivo", "design": "key to Gastritis, grade 2 (slight): incidence / Gastritis, grade 3 (moderate): incidence / Gastritis, total incidence / Inflammatory cell infiltration, grade 1 (minimal): incidence / Inflammatory cell infiltration, grade 2 (slight): incidence / Gastritis, grade 1 (minimal): incidence: “—” = finding not present; 1 = minimal; 2 = slight; 3 = moderate; 4 = moderately severe; 5 = severe", "settings": "for Gastritis, total incidence / Gastritis, grade 1 (minimal): incidence / Gastritis, grade 2 (slight): incidence / Gastritis, grade 3 (moderate): incidence / Inflammatory cell infiltration, grade 1 (minimal): incidence / Inflammatory cell infiltration, grade 2 (slight): incidence: 90 mg/kg/day, 28-day, 10 examined; for Gastritis, total incidence: number of animals; for Gastritis, grade 1 (minimal): incidence / Gastritis, grade 2 (slight): incidence / Gastritis, grade 3 (moderate): incidence / Inflammatory cell infiltration, grade 1 (minimal): incidence / Inflammatory cell infiltration, grade 2 (slight): incidence: terminal kill, cell = number of animals", "excerpt": "Study (28-day rat study with LMT.2MsOH): Incidence and severity of selected microscopic findings in sternum, liver, spleen and stomach from terminal animals"}, "[3]": {"target": "T1, truncated tau (amino acids 297-391) in solution binding to solid-phase bound truncated tau (residues 297-390) (Homo sapiens, UniProt P10636)", "T1 construct": "made in house", "T1 sequence (P10636 614-708)": "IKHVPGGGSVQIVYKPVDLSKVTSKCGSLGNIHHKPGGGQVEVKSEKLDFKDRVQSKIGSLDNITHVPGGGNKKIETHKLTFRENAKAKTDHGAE", "T1 sequence (P10636 614-707)": "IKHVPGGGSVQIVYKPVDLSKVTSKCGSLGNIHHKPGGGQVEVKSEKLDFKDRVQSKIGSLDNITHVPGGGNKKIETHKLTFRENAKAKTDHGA", "experiment": "Solid phase assay for tau aggregation (tau-tau binding, B50)", "settings": "concentration at which tau-tau binding is decreased by 50%; mean ± SE", "excerpt": "The tau-tau aggregation assay uses purified recombinant tau fragments in a solid-phase immunoassay. Methods are described in detail in e.g. WO 96/30766. Briefly, the assay measures the binding of truncated tau (amino acids 297-391) in solution to solid-phase bound truncated tau (residues 297-390). Binding of the former is detected with the antibody mAb 423, which specifically recognises peptides containing a C-terminal Glu-391 residue. The Tau complex formed in vitro is similar to the aggregated complex that forms in Alzheimer's disease as a consequence of the stability of the pathological Tau-Tau binding interaction through a 94/95-amino acid repeat domain (residues 297-390), found in the proteolytically stable core of the paired helical filament.\nThe B50 value (expressed as mean±SE) is determined as the concentration of compound at which tau-tau binding is decreased by 50%."}, "[4]": {"system": "female Wistar rats", "experiment": "14 day oral administration to rats: toxicology and neutrophil response", "assay_type": "in vivo", "excerpt": "Table: Neutrophil response in rats following 14 day oral administration of different salt forms of LMT."}, "[5]": {"target": "full-length human tau protein (htau40) and truncated tau (295-390, dGA) in 3T6 mouse cells (Homo sapiens, UniProt P10636)", "experiment": "Cell-based tau aggregation assay"}, "[6]": {"system": "minipigs", "experiment": "Studies on the hemopoietic system (methemoglobinemia), minipig", "assay_type": "in vivo", "description": "Studies on the hemopoietic system were performed in rat, monkey and minipig."}, "[7]": {"system": "rats", "experiment": "Studies on the hemopoietic system (methemoglobinemia), rat", "assay_type": "in vivo"}, "[8]": {"experiment": "Pharmacokinetics: plasma concentration of the MT moiety in pig", "assay_type": "in vivo", "settings": "oral doses 2 and 15 mg/kg"}, "[9]": {"experiment": "Solubility of LMT salts in aqueous HCl solutions at 37° C.", "assay_type": "physicochemical", "settings": "aqueous HCl solution pH 2.00 (21.4° C.); lower limit complete dissolution, upper limit saturation", "description": "Two aqueous solutions (pH 2.00 and 3.01 at 21.4° C.) were prepared by carefully adding HCl (5 M) to deionised water. In each experiment a 5 ml aliquot of one of the aforementioned solutions was heated to 37° C. […] This step was repeated until no further dissolution took place."}, "[10]": {"experiment": "pH dependence of solubility of LMT.2MsOH in buffered aqueous solutions at 25° C.", "assay_type": "physicochemical", "settings": "aqueous buffer, thermodynamic from solid", "description": "In related experiments three buffered stock solutions were prepared (pH 2, pH 3, and pH 7) as follows: A solution of (0.2 M) potassium chloride (KCl) (0.745 g in 50 mL of deionised water) was initially prepared. From this solution 50 mL was taken and diluted with approximately 80 mL of deionised water. A (0.2 M) hydrochloric acid (HCl) solution was then used to adjust the pH to 2, before further dilution with deionised water to make up to 200 mL. A final pH of 2.00 at 21.6° C. was recorded. A solution of (0.1 M) potassium hydrogen phthalate (2.042 g in 100 mL of deionised water) was initially prepared. From this solution 100 mL was taken and diluted with approximately 50 mL of deionised water. A 0.2 M HCl solution was then used to adjust the pH to 3, before further dilution with deionised water to make up to 200 mL. A final pH of 2.99 at 21.7° C. was recorded. A solution of (0.1 M) potassium phosphate monobasic (KH2PO4) (1.370 g in 100 mL of deionised water) was initially prepared. From this solution 100 mL was taken and diluted with approximately 80 mL of deionised water. A 0.5 M sodium hydroxide (NaOH) solution was then used to adjust the pH to 7, before further dilution with deionised water to make up to 200 mL. A final pH of 7.07 at 22° C. was recorded. […] This vial was placed into a water bath set at 25° C. To the solution was added LMT.2MsOH in 1-1.5 g portions. After each addition, a 10 minutes stir time was allowed to ensure maximum opportunity for dissolution. The homogeneity of the mixture was judged by eye. If solid was still present, after the stir time, as judged by visual inspection, the saturation point was judged to have been reached. The viscosity of the resulting mixtures precluded adequate isolation of the excess solid, therefore it was not possible to determine exact solubility values."}}}
{"smiles": "CN(C)c1ccc2c(c1)Sc1cc(N(C)C)ccc1N2.CS(=O)(=O)O.CS(=O)(=O)O", "note": "[LMT.2MsOH, N,N,N′,N′-tetramethyl-10H-phenothiazine-3,7-diaminium bis(methanesulfonate)]", "values": [{"measurement": "Weight change in dynamic vapour sorption", "setting": "[1]", "result": "less than 0.5%"}, {"measurement": "Gastric irritation compared with LMT.2HBr", "setting": "[2]; 28-day rat studies", "result": "less gastric irritation"}, {"measurement": "Gastritis, total incidence", "setting": "[2]; female rats", "result": 3}, {"measurement": "Gastritis, grade 1 (minimal): incidence", "setting": "[2]; female rats", "result": "—"}, {"measurement": "Gastritis, grade 2 (slight): incidence", "setting": "[2]; female rats", "result": 2}, {"measurement": "Gastritis, grade 3 (moderate): incidence", "setting": "[2]; female rats", "result": 1}, {"measurement": "Inflammatory cell infiltration, grade 1 (minimal): incidence", "setting": "[2]; female rats", "result": 4}, {"measurement": "Inflammatory cell infiltration, grade 2 (slight): incidence", "setting": "[2]; female rats", "result": 1}, {"measurement": "Gastritis, total incidence", "setting": "[2]; male rats", "result": 2}, {"measurement": "Gastritis, grade 1 (minimal): incidence", "setting": "[2]; male rats", "result": "—"}, {"measurement": "Gastritis, grade 2 (slight): incidence", "setting": "[2]; male rats", "result": 2}, {"measurement": "Gastritis, grade 3 (moderate): incidence", "setting": "[2]; male rats", "result": "—"}, {"measurement": "Inflammatory cell infiltration, grade 1 (minimal): incidence", "setting": "[2]; male rats", "result": 4}, {"measurement": "Inflammatory cell infiltration, grade 2 (slight): incidence", "setting": "[2]; male rats", "result": "—"}, {"measurement": "IC50", "setting": "[3]", "result": "238 ± 74.2", "unit": "µM"}, {"measurement": "Neutropaenia in prepared blood smears (mature neutrophils)", "setting": "[4]; 14 days", "result": "no decrease"}, {"measurement": "Neutrophils (total neutrophils as percentage of total white cells)", "setting": "[4]; 14 days oral, 95 mg MT/kg/day Days 1-10, 60 mg MT/kg/day Days 11-14", "result": 18.30, "unit": "%"}, {"measurement": "Dose-related deaths", "setting": "[4]; 14 days oral, animal numbers per group of 8 rats", "result": "0/8"}, {"measurement": "Early neutrophils (frequency of presence of immature neutrophils per animal group)", "setting": "[4]; 14 days oral, animals per group of 8", "result": "1/8"}, {"measurement": "EC50", "setting": "[5]", "result": "0.19 ± 0.04", "unit": "µM"}, {"measurement": "therapeutic index greater compared with MTC", "setting": "[5]", "result": 63, "unit": "%"}, {"measurement": "THx, therapeutic index (THx = LD50/EC50)", "setting": "[5]; LD50/EC50", "result": 179}, {"measurement": "Lowest dose at which methemoglobinemia was observed", "setting": "[6]", "result": 10, "unit": "mg MT/kg/day"}, {"measurement": "Methemoglobinemia", "setting": "[6]; 3 mg MT/kg/day, first 28-days of dosing in the 9-month study", "result": "no indications of methemoglobinemia"}, {"measurement": "Lowest dose at which methemoglobinemia was observed", "setting": "[7]", "result": 30, "unit": "mg MT/kg/day"}, {"measurement": "Cmax of MT moiety in plasma, fold greater than that for LMT.2HCl or LMT.2HBr", "setting": "[8]", "result": "more than 2 fold"}, {"measurement": "Tmax", "setting": "[8]; plasma", "result": 1, "unit": "h"}, {"measurement": "Solubility g/5 ml (37° C.)", "setting": "[9]", "result": "8.825-9.943 g/5 ml"}, {"measurement": "solubility at 10 min", "setting": "[10]; buffered aqueous solution pH 2.00, 25° C.", "result": "1600 to 1770", "unit": "mg/mL"}, {"measurement": "solubility at 10 min", "setting": "[10]; buffered aqueous solution pH 2.99, 25° C.", "result": "1980 to 2090", "unit": "mg/mL"}, {"measurement": "solubility at 10 min", "setting": "[10]; buffered aqueous solution pH 7.07, 25° C.", "result": "2030 to 2110", "unit": "mg/mL"}]}
